According to doi:10.1101/2021.01.05.425432v2 (biorxiv, 2021):
Converted amounts (≈) assume the structure as drawn. Where two headings read alike, the source gives them in different places.

Columns and labels:
[1] = biological target: T1, jack bean urease (JBU) (Canavalia ensiformis, UniProt P07374); assay: tandem-well NH3 assay, salicylic acid-hypochlorite; format: biochemical
[2] = biological target: T2, H. pylori urease (HPU) (Helicobacter pylori, UniProt P69996); assay: tandem-well NH3 assay, Nessler's reagent, crude extract; format: biochemical
[3] = tested on: H. pylori; assay: microbe, parasite or virus in culture; details: Helicobacter pylori, 72 h, read-out: H. pylori (MIC) µM
[4] = tested on: H. pylori; assay: microbe, parasite or virus in culture; details: Helicobacter pylori, 72 h, read-out: H. pylori (MIC) µg/ml
[5] = tested on: O. anthropi urease (OAU); format: biochemical, Brucella anthropi
[6] = biological target: T2, H. pylori urease (HPU); assay: cell-based
[7] = biological target: T3, human CBS (hCBS) (Homo sapiens, UniProt P35520); assay: tandem-well H2S assay; format: biochemical
T3 sequence (P35520 1-551): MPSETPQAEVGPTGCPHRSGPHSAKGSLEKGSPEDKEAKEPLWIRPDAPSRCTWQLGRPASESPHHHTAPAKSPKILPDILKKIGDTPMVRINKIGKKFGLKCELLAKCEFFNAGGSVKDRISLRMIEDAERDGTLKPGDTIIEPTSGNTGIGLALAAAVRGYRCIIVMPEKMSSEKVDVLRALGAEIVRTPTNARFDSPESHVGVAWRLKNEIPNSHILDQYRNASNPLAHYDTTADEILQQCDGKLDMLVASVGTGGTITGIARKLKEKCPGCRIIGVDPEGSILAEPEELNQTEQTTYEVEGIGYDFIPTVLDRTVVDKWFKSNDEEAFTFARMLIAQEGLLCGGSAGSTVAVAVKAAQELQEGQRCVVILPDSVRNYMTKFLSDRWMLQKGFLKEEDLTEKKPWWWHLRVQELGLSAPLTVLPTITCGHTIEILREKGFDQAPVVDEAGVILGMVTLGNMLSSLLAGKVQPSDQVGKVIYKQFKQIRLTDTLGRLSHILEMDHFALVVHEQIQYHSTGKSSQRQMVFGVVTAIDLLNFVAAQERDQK

[8] = biological target: human CSE (hCSE) (Homo sapiens, UniProt P32929); assay: tandem-well H2S assay; format: biochemical
[9] = biological target: T1, jack bean urease (JBU); assay: enzyme kinetics, tandem-well NH3 assay; format: biochemical
[10] = biological target: T1, jack bean urease (JBU); assay: enzyme kinetics, tandem-well NH3 assay; format: biochemical; details: urea 12.5-200 mM; noncompetitive, covalent, allosteric (Cys313)
[11] = biological target: T1, jack bean urease (JBU); assay: SPR, Biacore T200, JBU immobilised on CM5 chip; format: binding
[12] = 25 mM urea, 100 μM NiCl2, 50 mM phosphate pH 7.4, 37 °C, 30 min preincubation

T2 sequence (P69996 whole entry): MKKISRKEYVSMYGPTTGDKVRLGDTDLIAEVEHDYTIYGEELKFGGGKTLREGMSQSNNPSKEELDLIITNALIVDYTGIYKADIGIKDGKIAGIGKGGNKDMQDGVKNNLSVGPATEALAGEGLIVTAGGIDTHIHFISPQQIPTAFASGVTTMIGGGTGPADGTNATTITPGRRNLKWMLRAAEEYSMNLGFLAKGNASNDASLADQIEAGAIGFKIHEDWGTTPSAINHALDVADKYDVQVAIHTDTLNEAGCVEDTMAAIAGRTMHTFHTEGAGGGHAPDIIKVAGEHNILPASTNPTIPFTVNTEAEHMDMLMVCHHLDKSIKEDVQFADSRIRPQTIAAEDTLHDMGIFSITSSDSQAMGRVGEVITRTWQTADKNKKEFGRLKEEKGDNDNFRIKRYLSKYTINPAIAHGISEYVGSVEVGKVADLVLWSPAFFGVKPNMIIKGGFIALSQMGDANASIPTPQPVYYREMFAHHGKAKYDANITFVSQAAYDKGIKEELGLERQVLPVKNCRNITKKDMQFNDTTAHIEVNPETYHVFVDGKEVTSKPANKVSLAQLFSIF
T2 sequence (P14916 whole entry partner): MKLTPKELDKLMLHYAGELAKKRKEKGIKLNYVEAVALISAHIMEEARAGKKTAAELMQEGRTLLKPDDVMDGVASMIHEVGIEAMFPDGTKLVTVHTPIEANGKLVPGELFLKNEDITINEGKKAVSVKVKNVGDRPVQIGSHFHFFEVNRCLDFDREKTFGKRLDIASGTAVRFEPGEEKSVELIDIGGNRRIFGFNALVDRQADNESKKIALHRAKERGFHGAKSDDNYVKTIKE
Chain of human CSE (hCSE) (P32929 whole entry): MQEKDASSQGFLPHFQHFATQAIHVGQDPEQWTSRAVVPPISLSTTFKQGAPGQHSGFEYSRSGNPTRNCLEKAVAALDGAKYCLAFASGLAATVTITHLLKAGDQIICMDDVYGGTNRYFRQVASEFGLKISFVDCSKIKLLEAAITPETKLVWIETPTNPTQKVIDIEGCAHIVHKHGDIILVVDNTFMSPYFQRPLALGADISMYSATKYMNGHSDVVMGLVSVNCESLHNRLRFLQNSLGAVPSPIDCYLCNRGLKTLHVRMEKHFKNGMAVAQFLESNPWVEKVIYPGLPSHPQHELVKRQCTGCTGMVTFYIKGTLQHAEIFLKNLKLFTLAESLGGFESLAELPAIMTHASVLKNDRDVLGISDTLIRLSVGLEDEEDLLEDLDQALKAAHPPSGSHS
T1 sequence (P07374 whole entry, looked up): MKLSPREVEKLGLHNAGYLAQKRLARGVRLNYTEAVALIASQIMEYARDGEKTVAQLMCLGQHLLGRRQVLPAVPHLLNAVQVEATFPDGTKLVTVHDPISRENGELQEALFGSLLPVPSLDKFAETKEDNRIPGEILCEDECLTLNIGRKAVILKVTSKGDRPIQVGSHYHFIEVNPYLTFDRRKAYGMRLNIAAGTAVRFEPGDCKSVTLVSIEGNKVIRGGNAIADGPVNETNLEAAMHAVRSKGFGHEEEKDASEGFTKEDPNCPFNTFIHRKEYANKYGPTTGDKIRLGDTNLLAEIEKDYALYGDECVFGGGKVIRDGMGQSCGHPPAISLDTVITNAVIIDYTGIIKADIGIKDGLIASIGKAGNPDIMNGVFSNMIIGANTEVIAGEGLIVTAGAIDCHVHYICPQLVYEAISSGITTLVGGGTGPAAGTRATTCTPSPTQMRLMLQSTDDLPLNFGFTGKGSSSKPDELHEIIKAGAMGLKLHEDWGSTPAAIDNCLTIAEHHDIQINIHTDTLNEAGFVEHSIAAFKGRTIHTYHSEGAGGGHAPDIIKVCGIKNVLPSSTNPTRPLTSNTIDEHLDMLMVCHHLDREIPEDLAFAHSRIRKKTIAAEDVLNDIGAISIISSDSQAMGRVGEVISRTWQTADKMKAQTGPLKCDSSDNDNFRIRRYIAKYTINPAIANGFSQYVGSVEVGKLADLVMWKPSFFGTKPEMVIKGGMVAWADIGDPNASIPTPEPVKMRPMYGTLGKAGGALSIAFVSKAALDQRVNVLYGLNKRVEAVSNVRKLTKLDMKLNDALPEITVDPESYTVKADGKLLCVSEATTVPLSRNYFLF

Row | Compound | IC50 [1] [µM] | IC50 [2] [µM] | MIC [3] [µM] | MIC [4] [µg/mL] | IC50 [5] [µM] | other results
1 | O=C1c2ccccc2[Se](=O)N1c1ccccc1 (stereo not shown) [Ebselen oxide] | 0.4 ± 0.005 | 1.5 ± 0.2 | 12.5 (≈ 3.63 µg/mL) | 4 (≈ 13.8 µM) | 3.3 ± 0.1 | IC50 [6]: 23.2 ± 1.1 µM
2 | Cc1ncc([N+](=O)[O-])n1CCO [Metronidazole] |  |  | > 3000 | > 512 |  | 
3 | CCS(=O)(=O)CCn1c([N+](=O)[O-])cnc1C [Tinidazole] |  |  | > 2000 | > 512 |  | 
4 | CN(C)Cc1c(C(=O)NCCOc2ccc(C(=O)NO)cc2)oc2ccccc12 [abexinostat] | 1.4 ± 0.3 | 1.3 ± 0.2 |  |  |  | 
5 | CC(=O)NO [acetohydroxamic acid] | 162 ± 13.4 | 25.9 ± 1.2 |  | > 16 | 2.8 ± 0.9 | IC50 [7]: > 200 µM; IC50 [8]: > 200 µM; Ki [9]: 2.1 ± 0.8 µM
6 | O=C(/C=C/c1cccc(S(=O)(=O)Nc2ccccc2)c1)NO [belinostat] | 4.7 ± 0.5 | 3.2 ± 0.2 |  |  |  | 
7 | COc1ccc2c(=O)n(-c3ccccc3)[se]c2c1 [compound 1, 2-Phenyl-6-methoxybenzoisoselen-3-one] |  |  |  |  | 7.5 ± 0.6 | IC50 [1, 12]: 0.3 ± 0.007 µM; IC50 [2, 12]: 2 ± 0.9 µM
8 | COc1ccc2c(=O)n(-c3ccccc3)[se]c2c1 [compound 1] |  |  | 6.25 (≈ 1.9 µg/mL) | 2 (≈ 6.57 µM) |  | 
9 | O=c1[nH][se]c2ccccc12 [compound 4, Benzisoselenol-3-one] | 0.8 ± 0.008 | 1.1 ± 0.08 |  |  | 2.2 ± 0.1 | 
10 | O=c1[nH][se]c2ccccc12 [compound 4] |  |  | 12.5 (≈ 2.48 µg/mL) | 2 (≈ 10.1 µM) |  | IC50 [6]: 18.5 ± 1.2 µM
11 | CCCn1[se]c2ccccc2c1=O [compound 5, 2-Propyl-benzisoselenol-3-one] | 1.4 ± 0.03 | > 10 |  |  | 5.3 ± 0.9 | 
12 | CSn1[se]c2ccccc2c1=O [compound 6, 2-Methylthio-benzisoseleno-3-one] |  |  |  |  | 1.7 ± 0.1 | IC50 [1, 12]: 0.3 ± 0.04 µM; IC50 [2, 12]: 1.3 ± 0.4 µM
13 | c1ccc(C[Se][Se]Cc2ccccc2)cc1 [dibenzyl diselenide] |  |  | > 200 | > 64 |  | 
14 | CCN(CC)C(=S)SSC(=S)N(CC)CC [disulfiram] | 38.9 ± 2.7 | 8.9 ± 1.5 | 12.5 (≈ 3.71 µg/mL) | 4 (≈ 13.5 µM) | 35 ± 0.1 | IC50 [7]: > 200 µM; IC50 [8]: > 200 µM; IC50 [6]: 36.3 ± 1 µM
15 | O=c1c2ccccc2[se]n1-c1ccccc1 [ebselen] | 0.4 ± 0.07 | 2.8 ± 0.5 | 12.5 (≈ 3.43 µg/mL) | 4 (≈ 14.6 µM) | 3 ± 1 | αKi [10]: 0.8 ± 0.2 µM; IC50 [7]: > 200 µM; IC50 [8]: 44.3 ± 1.3 µM; Kd [11]: 0.089 ± 0.005 µM; IC50 [6]: 5.7 ± 1.3 µM
16 | NO [hydroxylamine] | > 20 | > 20 |  |  |  | 
17 | CNC(=O)[C@H](Cc1c[nH]c2ccccc12)NC(=O)[C@@H](CC(=O)NO)CC(C)C [ilomastat] | > 20 | > 20 |  |  |  | 
18 | Cc1[nH]c2ccccc2c1CCNCc1ccc(/C=C/C(=O)NO)cc1 [panobinostat] | 0.2 ± 0.006 | 0.1 ± 0.01 |  |  | 0.07 ± 0.006 | IC50 [7]: > 200 µM; IC50 [8]: > 200 µM; Kd [11]: 8.9 ± 0.4 µM; Ki [9]: 0.02 ± 0.01 µM
19 | O=C(CCCCCCNC(=O)c1cnc(N(c2ccccc2)c2ccccc2)nc1)NO [ricolinostat] | > 20 | > 20 |  |  |  | 
20 | O=C(CCCCCCC(=O)Nc1ccccc1)NO [vorinostat] | 4.1 ± 1.9 | 14 ± 3.9 |  |  |  | 
